Here are results for 3 compounds from US10928398B2, “Method for double staining colocalized nuclear-markers in histological lymphoid or bone marrow tissue sample” (CORNELL UNIVERSITY, priority 2008, dated 2021).

The test system of one assay is relapsed MM. Briefly: Time to progression of relapsed MM patients receiving high-dose Dex in prospective clinical trials. Type of assay: in vivo, human. From the text:
High-dose pulsed dexamethasone (Dex) is one of the preferred treatments for relapsed MM patients and is currently the accepted gold standard against which investigational drugs are being tested. The predictors of outcome for relapsed patients while on Dexamthasone (Dex) treatment have not been well established. These predictors were prospectively evaluated using the Ki-67/MUM1 markers in patients with relapsed MM receiving Dex in consecutive, prospective clinical trials. Time to progression is defined as date of Dex initiation to date of progressive disease (PD). Sixteen patients with relapsed MM were evaluated.

The test system of assay [1] is Rb phosphorylation by Cdk4/6 at serine 807/811 (pS807/811Rb) in lymphoma cells. Kind of assay: Double IHC PAX5/pS807/811Rb with image analysis of lymph node biopsies of a B cell lymphoma patient in a phase I trial. Type of assay: in vivo, human. The settings on record: day 21 of therapy, 84.08% before treatment. The text has this: (§1) The double stained IHC slides were accessioned into the image analysis system and then loaded onto the machine in batches of 60. A robotic arm picked up each slide, one at a time, and loaded it onto the microscope. Via a motorized stage, the microscope moves and scans the slide, looking for tissue, the location of which varies slightly from slide to slide. Once it has found the tissue, the device scans the tissue and the camera records low resolution images. Using the scanned low resolution images, the inventor selected ten good areas for subsequent high resolution scanning and analysis. Numerous data points were then calculated for each of the ten areas per slide, and those data were averaged.
(§2) Since no counterstain was used in these slides, all identifiable cells are positive for at least one marker (e.g., in FIG. 3A, cells that express neither MUM1 nor pSRb are not visible). The characteristics used for the analysis (“classifiers”) were determined by a process whereby the inventor trained the software what was considered to be cells of each color. The software analyzed the high resolution images by first applying color parameters to decide if a nucleus was blue, red, or purple. It finds pixels within the appropriate range of color parameters as defined by hue, saturation, and intensity; objects too light or too dark, as determined by the classifiers, were not included in the analysis. […]

Assay [2] deals with MM cells (MUM1 positive) expressing Ki67 or pSRb. Kind of assay: Double IHC MUM1/Ki67 or MUM1/pSRb of bone marrow biopsies of multiple myeloma patients in a phase I/II trial. To be noted: for Effect on cycling of MM cells (Ki67, pSRb): MM patient bone marrow, after treatment for 8 days. The class given is in vivo, human. The protocol: In hematopoietic cancer biopsies, the non-cancer hematopoietic and immune cells must be excluded. In this example, multiple myeloma (MM) cells were identified in biopsy samples with an anti-MUM1 antibody and a detection system yielding a red signal. Specificity of MUM1 for myeloma cells in MM biopsies is estimated at ˜99%, thus excluding non-MM cells from the analysis. Double IHC was performed to detect cell cycle molecules in situ in MM cells. Each slide was stained for MUM1 (above) using Bond™ Polymer AP Red Detection System (DS9305, Leica, Bannockburn, Ill.) to afford a red pigment, and for the cell cycle molecule with Blue Alkaline Phosphate Substrate Kit (Vector Laboratories, Burlingame, Calif.) to afford a blue pigment. The cell cycle molecules, including Ki67 and pSRb, are nuclear. With these particular chromogen systems, double staining yielded MM cells with either a red nuclear signal if the cell was not proliferating or a purple nuclear signal if the MM cells were proliferating (positive for the cell cycle molecule in question). Cells with a blue nuclear signal ([…]) were non MM cells (FIG. 3A) that were proliferating.
To compute the percentage of MM cells expressing various cell cycle molecules, purple (MUM1+/cell cycle molecule+) cells were manually counted as a percentage of purple cells plus red (MUM1+/cell cycle molecule negative) cells. This manual method of analysis can be performed with any standard microscope.
To increase the accuracy, the same slides were first loaded in batches of 60 into an image analysis system, which performs photographic digital scans of each slide. Using an automatic image analyzer, the number of cells with a purple nucleus and those with a red nucleus in a given area was determined. The counts were performed in triplicate. The percentage of MM cells in the proliferative stage represented by the cell cycle molecule targeted is the number of purple cells divided by the number of purple and red cells. […] The intensity of positive staining was scored in comparison to expression in B cells from serial sections of a single tonsil control slide, run in parallel with the marrow slides. […]
IHC was performed on 4 micron sections of paraffin-embedded bone marrow tissues using a Leica Microsystems (Bannockburn, Ill.) Bond Max automated immunostainer. MUM1 MM cells were detected using an anti-MUM1 mouse monoclonal antibody (Mab) (Dako, Carpinteria, Calif.) and the Bond™ Polymer AP Red Detection System (Leica). Simultaneous expression of other proteins was detected with monoclonal antibodies to Ki-67, cyclin D1, cyclin D2, cyclin D3, MCM2, MCM7, skp2, p16, p18, p21, p27, Rb, c-myc, Cdk4 and Cdk6 and polyclonal rabbit antisera to either pSer^807/811, pSer^608 or pSer^780 of human Rb. […]

In assay [3] the test system is Ki67 expression in lymphoma cells. Briefly: Double IHC PAX5/Ki67 with image analysis of lymph node biopsies of a B cell lymphoma patient in a phase I trial. The settings on record: day 21 of therapy, 97.52% prior to treatment. Type of assay: in vivo, human.
Excerpt: as §1, §2

The test system of the next assay is Myeloma. To be noted: cited from earlier work.

On to `C[C@@H]1C[C@H]2[C@@H]3CCC4=CC(=O)C=C[C@]4(C)[C@@]3(F)[C@@H](O)C[C@]2(C)[C@@]1(O)C(=O)CO` [Dex, dexamethasone], for which the “Patients showing progressive disease” value with relapsed MM (16 patients with relapsed MM, n=9) came out at 56%. Also, in the assay with relapsed MM (patients with progressive disease, from Dex initiation), the “Median time to progressive disease” value amounted to 87 days.
Regarding `CC(=O)c1c(C)c2cnc(Nc3ccc(N4CCNCC4)cn3)nc2n(C2CCCC2)c1=O` [PD-332991], the “pS807/811Rb found in % of lymphoma cells” value in assay [1] worked out at 2.14%. In assay [2] (11/11 MM patients), the “MM patients showing similar efficacy” value is 100%. Also, the results for the “Effect on cycling of MM cells (Ki67, pSRb)” value in assay [2] and in assay [2] (listed as CDk4/6 inhibitor) were “great efficacy” and “no longer cycling”, respectively. Also, in assay [2] (biopsies 6 days after cessation of drug administration), the “Cycling of MM cells after cessation of drug” value is “returned to cycling in percentages comparable to what was observed prior to treatment”. Also, the “Ki67 expression in % of lymphoma cells” value in assay [3] is listed as 23.13%.
Turning to `CC(C)C[C@H](NC(=O)[C@H](Cc1ccccc1)NC(=O)c1cnccn1)B(O)O` [PS-341(bortezomib), bortezomib], the “Responsiveness, % of patients” value in the assay on Myeloma is given as 30%.
